The source of these data is patent US20240247031A1, “COMPOSITION FOR TREATING CANCER CONTAINING TELOMERASE-TARGETING GNRH ANTAGONIST-DERIVED PEPTIDE HS1002” (Research & Business Foundation Sungkyunkwan University, priority 2023, published 2024).

The subject of one series is LNCaP tumors. The series can be described thus: LNCaP xenograft model, tumor volume, tumor weight and body weight (FIG. 17). The note with it: LNCaP xenograft BALB/c nude mice, 1 mg/kg/day s.c., 13 days. The format is in vivo. On the procedure: (§1) All mice were purchased from Central Lab Animal Inc. ([…]). They were raised in a 12 h environmental light/dark cycle with controlled temperature (22±2° C.) conditions. The experimental protocol was approved by the Sungkyunkwan University Institutional Animal Care and Use Committee (SKKUIACUC2021-06-27-1, SKKUIACUC2023-01-07-1). For the establishment of tumors, LNCaP (1×10^7), MC38 (2×10^5), and 4T1 (1×10^6) suspended in serum-free media containing 50% Matrigel was subcutaneously administered in the right flank of mice, respectively. The tumor volumes (V) were calculated using a caliper and the standard equation: V (mm^3)=0.52 (ab^2) (a=length, b=width). Once the tumor reached 100-200 mm^3, the mice were randomly divided into different groups and subcutaneously injected with a vehicle or each peptide every day.
To investigate the anticancer effect of HS1002, the present inventors observed the volume of cancer cells after transplanting the cancer cells into experimental animals. Specifically, mice (4-week-old male BALB/c nude mice; Central Lab. Animal Inc., Seoul, Korea) were prepared, and tumor cells (1×10^7 LNCaP cells) suspended in 1 mL of a serum-free medium containing 50% Matrigel were percutaneously injected into the upper flank of each nude mouse. When the tumor cell volume reached about 200 mm^3, the mice were randomly assigned to a vehicle control group, a leuprolide acetate-treated group, and test groups (GV1001-treated group and HS1002-treated group), respectively. Leuprolide acetate (0.1 mg/kg/day) and GV1001 and HS1002 (1 mg/kg/day) were injected subcutaneously for 13 days.

The test system of another series is MC38 tumor. The series can be described thus: MC38 syngeneic mouse tumor model (FIG. 19). Type of series: in vivo. The note with it: 1 mg/kg s.c. every day. On the procedure: as §1
The sequences of the TERT peptide are highly conserved in human and mouse, indicating its potential translatability to mouse cancer. […] Hot tumors are generally more responsive to immunotherapy. In contrast, ‘Cold’ tumors such as the 4T1 tumor model lack infiltrating T cells and often have a low tumor mutational burden. Without a pre-existing adaptive immune response, cold tumors are insensitive to immunotherapy. […]

Another series deals with c-Myc. The series can be described thus: c-Myc protein expression and transcriptional activity in LNCaP (FIG. 12). The format is cell-based, human. The conditions noted are these: 300 μM, 72 h. On the procedure:
The cells and tumor tissues were homogenized using the PRO-PREP™ extraction solution (iNtRON Biotechnology, Seongnam, Korea). After incubation, the homogenate was centrifuged at 16,000×g for 20 min at 4° C., and the supernatant was collected for western blot analysis. Subsequently, an equivalent quantity of protein was separated using sodium dodecyl sulfate polyacrylamide gels and transferred onto a polyvinylidene difluoride (PVDF) membrane. The PVDF membranes were incubated with the primary antibodies overnight at 4° C., washed with tris-buffered saline, and then incubated with HRP-conjugated anti-mouse or anti-rabbit antibodies. The bands were visualized using a ChemiDoc imaging system (Bio-Rad, Hercules, CA, USA). The band intensities were determined using an Image J software.
The c-Myc Transcription Factor Assay Kit (Cat. ab207200, abcam) was used to quantify the activation of c-Myc in nuclear extracts after peptide treatment. […] The protein concentration was quantified using the Bradford method (798 μL Bradford, 200 μL water, and 2 μL of the protein) at a wavelength of 595 nm (SmartSpecPlus; BioRad). For the detection of c-Myc transcriptional activity, 5 μg of the isolated nuclear extracts were used, and the absorbance was measured on a spectrophotometer (Synergy HT; BioTek) at OD 450 nm. […]

The structures appear in SMILES notation.

For `CCNC(=O)[C@@H]1CCCN1C(=O)[C@@H](NC(=O)[C@H](Cc1ccccc1)NC(=O)[C@H](CCCNC(=N)N)NC(=O)[C@H](CC(C)C)NC(=O)[C@H](CCCNC(=N)N)NC(=O)[C@H](Cc1ccc(O)cc1)NC(=O)[C@H](CO)NC(=O)[C@H](Cc1c[nH]c2ccccc12)NC(=O)[C@H](Cc1c[nH]cn1)NC(=O)[C@@H]1CCC(=O)N1)[C@@H](C)CC` [HS1002], in the series on LNCaP tumors, the other toxicity entry is listed as “no other toxicity”, the “reduction of tumor volume” value is listed as “about 50%” and the “reduction of tumor weight” value is “about 50%”. For the same compound, in the series on MC38 tumor, the tumor volume entry is recorded as “diminished” and the tumor weight entry is reported as “diminished”. Moreover, in the series on c-Myc, the c-Myc protein expression result is recorded as “significantly decreased” and the c-Myc transcriptional activity entry was “significantly decreased”.
